This note sets out measurements from US20200087625A1, “METHODS FOR ISOLATING, EXPANDING AND ADMINISTERING CANCER SPECIFIC CD8+ T CELLS” (priority 2017, published 2020).

Molecules are shown by their SMILES.

One data set has as its system 4T1 cells. As to the kind of experiment: IV (experimental) lung metastasis model of 4T1 breast cancer. Type of data set: in vivo, BALB/c mice.
A short description of data set [1]: Serum cytokine analysis (Luminex) after systemic administration. Type of data set: in vivo, BALB/c mice. Particulars: i.p. 185 nmol/injection; sera 2, 4, 6, 24 hours; 1V270 vs 1V136. As for the experimental part:
FIG. 36. […] BALB/c mice (n=5) were i.p. administered IV270 (200 μg=185 nmol/injection) or […] (58 μg=185 nmol/injection) and sera were collected 2, 4, 6, and 24 hours following the administration. The levels of TNFα, IL-12, and IP-IO were measured by Luminex assay. *P<0.05, **P<0.01 by two way ANOVA using a Bonferroni post hoc test comparing treatment groups.
The sera were collected from mice receiving […] of 1V136, 1V270 or vehicle 2, 4, 6, and 24 hours after i.p. administration (15). Cytokine levels in sera were determined by Luminex bead assays (MILLIPLEX™ MAP kit, Millip ore, Billerica, Mass.).

The next data set deals with SCC7. As to the kind of experiment: SCC7 tumor model, 1V270 with systemic anti-PD-1 agent. Type of data set: in vivo, C3H mice. The following applies: day 21, flow cytometry. As for the experimental part: FIGS. 2A-2F. […] C3H mice (n=5-8/group) were implanted with SCC7 and carcinoma cells 1A. Tumors and spleens were harvested on day 21 and T cells in TILs or spleens were analyzed by flow cytometry. (A and B) Tumor infiltrating CD8^+ T cells were gated on CD45^+CD3^+CD8^+ populations. Number of CD8^+ T cells (A) and IFNγ^+CD8^+ cells (B) per tumor volume (mm^3) were calculated and plotted. (C) Representative immunohistochemistry images of the tumors (day 21) stained for CD8 (red) and DAPI (blue). Scale bar: 20 μm. (D) Number of IFNγ^+CD8^+ T cells in spleens. Bars indicate mean±SEM. Each dot represents an individual animal and bars indicate mean±SEM in A, B and D. P*<0.05, **P<0.01 (Kruskal-Wallis test with Dunn's post hoc test), n=5-8/group. (E) Tumor volumes at the injected sites were plotted against the log of the number of IFNγ^+CD8^+ T cells in the tumor microenvironment. […] (F) The tumor volumes (day 21, injected side) were plotted against the log of the numbers of IFNγ^+CD8^+ T cells in the spleen.
FIGS. 3A-3E. […] (A-D) SCC7-bearing mice (n=4/group) were treated as described in FIG. 2. Tumors and spleens were harvested on day 21 and CD8^+ T cells were isolated using MACSMicroBead. RNA was isolated and next-generation sequencing was performed. (A) Representative data of TCR repertoire clonality of CD8^+ T cells. […]
In general terms: A flow cytometer gives signals particle by particle.

In the case of `CCCCCCCCC=CCCCCCCCC(=O)OCC(COP(=O)(O)OCCNC(=O)c1ccc(Cn2c(=O)[nH]c3c(N)nc(OCCOC)nc32)cc1)OC(=O)CCCCCCCC=CCCCCCCCC` (stereo not drawn) [1V270], the “lung metastasis after a single administration” value in the data set with 4T1 cells (200 μg i.p., 1 day prior to tumor inoculation) is listed as “sufficient to inhibit lung metastasis”. Also, the “lung metastasis (number of lung nodules)” value with 4T1 cells (1V270 2, 20 or 200 μg/injection i.p. days -1, 7, 10, 14, counted day 21) is recorded as “inhibited lung metastasis in a dose-dependent manner”. In the data set on 4T1 cells (i.p., inhibition of lung metastasis), this molecule returned a lowest effective dose of 20 µg. For the same molecule, the “number of lung nodules” value with 4T1 cells (intranasal 20 or 200 μg/50 μL on days -3, -1, 3, 7, 10) is on record as “inhibited the number of lung nodules in a dose-dependent manner”. Besides, in data set [1], the “serum cytokine induction (TNFα, IL-12, IP-10)” value was “significantly lower levels of cytokine induction”. The “CD8+ population in TILs” value in the data set on SCC7 is reported as “increased CD8^+ population in TILs”.
